Data reported in patent US20250122160A1, “PROTEIN TYROSINE PHOSPHATASE INHIBITORS AND METHODS OF USE THEREOF” (Calico Life Sciences LLC, priority 0001, published 2025).

Assays:
[1] = molecular target: T1, His tagged PTPN2 (TC45) protein (Homo sapiens, UniProt P17706); experiment: Mobility shift assay (MSA) to determine potency of PTPN2 inhibitors; assay type: biochemical; conditions: 0.5 nM enzyme, 2 μM substrate
T1 construct: made in house
T1 sequence (P17706 with tags, fused parts or gaps isoform P17706-2): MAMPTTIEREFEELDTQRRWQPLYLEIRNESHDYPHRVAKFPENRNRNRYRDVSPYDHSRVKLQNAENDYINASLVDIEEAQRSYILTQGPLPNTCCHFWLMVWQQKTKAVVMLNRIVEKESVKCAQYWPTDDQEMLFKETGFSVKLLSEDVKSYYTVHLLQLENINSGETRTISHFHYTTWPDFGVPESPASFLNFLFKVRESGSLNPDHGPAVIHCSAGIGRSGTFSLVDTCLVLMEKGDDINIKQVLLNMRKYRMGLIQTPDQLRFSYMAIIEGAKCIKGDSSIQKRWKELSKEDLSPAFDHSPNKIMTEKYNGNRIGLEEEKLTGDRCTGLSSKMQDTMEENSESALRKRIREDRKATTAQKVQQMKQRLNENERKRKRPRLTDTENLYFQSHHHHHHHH
Experimental: Compound activity was determined using in house His tagged PTPN2 (TC45) protein (SEQ ID NO: 1) in an in vitro enzymatic reaction. The enzymatic assay used to determine activity was a mobility shift assay using a LabChip EZ Reader by Caliper Life Sciences. The enzymatic reaction was carried out in assay buffer (50 mM HEPES pH 7.5, 1 mM EGTA, 10 mM EDTA, 0.01% Tween® 20, and 2 mM DTT). The compounds were dispensed on a white 384 well ProxiPlate™ (PerkinElmer Catalog #6008289) plate using the Labcyte Echo at varying concentrations (12 point, 1:3 dilution). The enzyme (at 0.5 nM) was incubated with compound for 10 minutes at room temperature. Then the substrate (phosphorylated insulin receptor probe sequence: ((OG488)-(NH—CH2—CH2—O—CH2—CH2—O—CH2—CO)-T-R-D-I-(PY)-E-T-D-Y—Y—R—K—K—NH2) (SEQ ID NO: 2) was added at 2 μM to the plates and incubated for another 10 minutes at room temperature. Finally, a quench solution (water and 4-bromo-3-(2-oxo-2-propoxyethoxy)-5-(3-{[1-(phenylmethanesulfonyl)piperidin-4-yl]amino}phenyl)thiophene-2-carboxylic acid) was added to the plates, which were then run on the EZ Reader (excitation 488 nm, emission 530 nm) to measure % conversion (the amount of phosphorylated substrate which was de-phosphorylated by PTPN2). […] The % inhibition was then used to calculate the IC50 values.

[2] = molecular target: T2, His tagged full-length PTPN1 protein (Homo sapiens, UniProt P18031); experiment: Mobility shift assay (MSA) to determine potency of PTPN1 inhibitors; assay type: biochemical; conditions: 0.5 nM enzyme, 2 μM substrate
T2 construct: made in house
T2 sequence (P18031 with tags, fused parts or gaps): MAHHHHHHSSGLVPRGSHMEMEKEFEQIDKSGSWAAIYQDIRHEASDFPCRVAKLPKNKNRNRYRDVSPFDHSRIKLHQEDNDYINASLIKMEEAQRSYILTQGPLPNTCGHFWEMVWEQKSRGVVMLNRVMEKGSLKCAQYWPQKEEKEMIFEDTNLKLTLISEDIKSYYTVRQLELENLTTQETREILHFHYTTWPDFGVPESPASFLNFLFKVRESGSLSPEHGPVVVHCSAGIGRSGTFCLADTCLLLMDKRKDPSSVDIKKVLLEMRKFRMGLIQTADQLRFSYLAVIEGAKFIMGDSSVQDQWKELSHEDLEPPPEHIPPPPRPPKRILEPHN
Experimental: Compound activity was determined using in house His tagged full-length PTPN1 protein (SEQ ID NO: 3) in an in vitro enzymatic reaction. The enzymatic assay used to determine activity is a mobility shift assay using a LabChip EZ Reader by Caliper Life Sciences. The enzymatic reaction was carried out in assay buffer (50 mM HEPES pH 7.5, 1 mM EGTA, 10 mM EDTA. 0.01% Tween® 20, and 2 mM DTT). The compounds were dispensed on a white 384 well ProxiPlate™ (PerkinElmer Cat #6008289) plate using a Labcyte Echo® liquid handler at varying concentrations (12 point, 1:3 dilution). The enzyme (at 0.5 nM) was incubated with compound for 10 minutes at room temperature. Then the substrate (phosphorylated insulin receptor probe sequence: ((OG488)-(NH—CH2—CH2—O—CH2—CH2—O—CH2—CO)-T-R-D-I-(PY)-E-T-D-Y—Y—R—K—K—NH2) (SEQ ID NO: 2) was added at 2 μM to the plates and incubated for another 10 minutes at room temperature. Finally, a quench solution (water and 4-bromo-3-(2-oxo-2-propoxyethoxy)-5-(3-{[1-(phenylmethanesulfonyl)piperidin-4-yl]amino}phenyl)thiophene-2-carboxylic acid) was added to the plates, which were then run on the EZ Reader (excitation 488 nm, emission 530 nm) to measure % conversion (the amount of phosphorylated substrate which was de-phosphorylated by PTPN1). […] The % inhibition was then used to calculate the IC50 values.

SMILES | IC50 [1] [nM] | IC50 [2] [nM]
O=C1CN(c2c(O)cc3c(c2F)C[C@H](NCC2CC2(F)F)CC3)S(=O)(=O)N1 (stereo partly drawn) [Compound 362, 5-[(7R)-7-{[(2,2-difluorocyclopropyl)methyl]amino}-1-fluoro-3-hydroxy-5,6,7,8-tetrahydronaphthalen-2-yl]-1λ^6,2,5-thiadiazolidine-1,1,3-trione] | 10 to 100 | 10 to 100
C[C@H]1Cc2c(cc(O)c(N3CC(=O)NS3(=O)=O)c2F)CN1 [Compound 289] | 10 to 100 | > 100
CC1(CN[C@@H]2CCc3cc(O)c(N4CC(=O)NS4(=O)=O)c(F)c3C2)COC1 [Compound 344, 5-[(7R)-1-fluoro-3-hydroxy-7-{[(3-methyloxetan-3-yl)methyl]amino}-5,6,7,8-tetrahydronaphthalen-2-yl]-1λ^6,2,5-thiadiazolidine-1,1,3-trione] | 1 to 10 | 10 to 100
O=C1CN(c2c(O)cc3c(c2F)C[C@H](NCCC2CCOCC2)CC3)S(=O)(=O)N1 [Compound 365, 5-[(7R)-1-fluoro-3-hydroxy-7-{[2-(oxan-4-yl)ethyl]amino}-5,6,7,8-tetrahydronaphthalen-2-yl]-1λ^6,2,5-thiadiazolidine-1,1,3-trione] | 1 to 10 | 10 to 100
O=C1CN(c2c(O)cc3c(c2F)CNCC3)S(=O)(=O)N1 [Compound 143, 5-(8-fluoro-6-hydroxy-1,2,3,4-tetrahydroisoquinolin-7-yl)-1λ^6,2,5-thiadiazolidine-1,1,3-trione] | 10 to 100 | > 100
CN(C)CCNC(=O)N1CCc2cc(O)c(N3CC(=O)NS3(=O)=O)c(F)c2C1 [Compound 280] | > 100 | > 100
O=C1CN(c2c(O)cc3c(c2F)C[C@H](NCCC2CCC2)CC3)S(=O)(=O)N1 [Compound 201] | < 1 | < 1
NCC(F)(F)CCCN[C@@H]1CCc2cc(O)c(N3CC(=O)NS3(=O)=O)c(F)c2C1 [Compound 409, 5-{(7R)-7-[(5-amino-4,4-difluoropentyl)amino]-1-fluoro-3-hydroxy-5,6,7,8-tetrahydronaphthalen-2-yl}-1λ^6,2,5-thiadiazolidine-1,1,3-trione] | 1 to 10 | 1 to 10
Cc1noc(C)c1CCN1Cc2c(cc(O)c(N3CC(=O)NS3(=O)=O)c2F)C(F)(F)C1 [Compound 306] | > 100 | > 100
Cn1cc(CCN2CCc3cc(O)c(N4CC(=O)NS4(=O)=O)c(F)c3C2)cn1 [Compound 252] | > 100 | > 100
C[C@@H]1C[C@@H](NC(=O)OC(C)(C)C)Cc2c1cc(O)c(N1CC(=O)NS1(=O)=O)c2F [Compound 395, tert-butyl [(2R,4R)-8-fluoro-6-hydroxy-4-methyl-7-(1,1,4-trioxo-1λ^6,2,5-thiadiazolidin-2-yl)-1,2,3,4-tetrahydronaphthalen-2-yl]carbamate] | > 100 | > 100
Cn1ccc(CN[C@@H]2CCc3cc(O)c(N4CC(=O)NS4(=O)=O)c(F)c3C2)c1 [Compound 346, 5-[(7R)-1-fluoro-3-hydroxy-7-{[(1-methyl-1H-pyrrol-3-yl)methyl]amino}-5,6,7,8-tetrahydronaphthalen-2-yl]-1λ^6,2,5-thiadiazolidine-1,1,3-trione] | 1 to 10 | 10 to 100
O=C1CN(c2c(O)cc3c(c2F)C[C@H](NCc2cnco2)CC3)S(=O)(=O)N1 [Compound 364, 5-[(7R)-1-fluoro-3-hydroxy-7-{[(1,3-oxazol-5-yl)methyl]amino}-5,6,7,8-tetrahydronaphthalen-2-yl]-1λ^6,2,5-thiadiazolidine-1,1,3-trione] | 10 to 100 | 10 to 100
Cc1noc(C)c1CN1CCc2cc(O)c(N3CC(=O)NS3(=O)=O)c(F)c2C1 [Compound 208] | 10 to 100 | 10 to 100
O=C1CN(c2c(O)cc3c(c2F)C[C@H](NCCC2(CO)CCC2)CC3)S(=O)(=O)N1 [Compound 338, 5-[(7R)-1-fluoro-3-hydroxy-7-({2-[1-(hydroxymethyl)cyclobutyl]ethyl}amino)-5,6,7,8-tetrahydronaphthalen-2-yl]-1λ^6,2,5-thiadiazolidine-1,1,3-trione] | < 1 | 1 to 10
CC(C)C1CN(C2CCc3cc(O)c(N4CC(=O)NS4(=O)=O)c(F)c3C2)CCO1 (stereo not drawn) [Compound 181] | 1 to 10 | 1 to 10
Cc1nn(CC(F)F)c(C)c1CCN1Cc2c(cc(O)c(N3CC(=O)NS3(=O)=O)c2F)C(F)(F)C1 [Compound 226] | 10 to 100 | 10 to 100
N#CC1CC1CN[C@@H]1CCc2cc(O)c(N3CC(=O)NS3(=O)=O)c(F)c2C1 (stereo partly drawn) [Compound 353, 2-({[(2R)-8-fluoro-6-hydroxy-7-(1,1,4-trioxo-1λ^6,2,5-thiadiazolidin-2-yl)-1,2,3,4-tetrahydronaphthalen-2-yl]amino}methyl)cyclopropane-1-carbonitrile] | 1 to 10 | 10 to 100
[2H]C1([2H])Cc2cc(O)c(N3CC(=O)NS3(=O)=O)c(F)c2C([2H])([2H])[C@@]1([2H])NCCC(C)C (single isomer, unassigned) [Compound 370] | 10 to 100 | > 100
CC(=O)N[C@@H]1CCc2cc(O)c(N3CC(=O)NS3(=O)=O)c(F)c2C1 [Compound 402, N-[(2R)-8-fluoro-6-hydroxy-7-(1,1,4-trioxo-1λ^6,2,5-thiadiazolidin-2-yl)-1,2,3,4-tetrahydronaphthalen-2-yl]acetamide] | > 100 | > 100
O=C1CN(c2c(O)cc3c(c2F)CN(C(=O)NCC2CCOCC2)CC3)S(=O)(=O)N1 [Compound 261] | 10 to 100 | 10 to 100
O=C1CN(c2c(O)cc3c(c2F)CN(CC2CNC2)CC3)S(=O)(=O)N1 [Compound 165] | 10 to 100 | 10 to 100
CC(C)CCS(=O)(=O)NC1CCc2cc(O)c(N3CC(=O)NS3(=O)=O)c(F)c2C1 (stereo not drawn) [Compound 332, N-[8-fluoro-6-hydroxy-7-(1,1,4-trioxo-1λ^6,2,5-thiadiazolidin-2-yl)-1,2,3,4-tetrahydronaphthalen-2-yl]-3-methylbutane-1-sulfonamide] | 10 to 100 | 10 to 100
CC(C)CNCC1(O)CCc2cc(O)c(N3CC(=O)NS3(=O)=O)c(F)c2C1 (stereo not drawn) [Compound 339, 5-(1-fluoro-3,7-dihydroxy-7-{[(2-methylpropyl)amino]methyl}-5,6,7,8-tetrahydronaphthalen-2-yl)-1λ^6,2,5-thiadiazolidine-1,1,3-trione] | 10 to 100 | 10 to 100
CC1=C(CCN[C@@H]2COc3cc(O)c(N4CC(=O)NS4(=O)=O)c(F)c3C2)C(C)(C)CCC1 [Compound 378, 5-[(3S)-5-fluoro-7-hydroxy-3-{[2-(2,6,6-trimethylcyclohex-1-en-1-yl)ethyl]amino}-3,4-dihydro-2H-1-benzopyran-6-yl]-1λ^6,2,5-thiadiazolidine-1,1,3-trione] | 10 to 100 | 
CN(C)CCCNC(=O)N1CCc2cc(O)c(N3CC(=O)NS3(=O)=O)c(F)c2C1 [Compound 285] | 10 to 100 | 
Cc1cc(CNC(=O)N2CCc3cc(O)c(N4CC(=O)NS4(=O)=O)c(F)c3C2)n(C)n1 [Compound 265] | 10 to 100 | 
